Source: ChEMBL document CHEMBL1201862, “PubChem BioAssay data set” (2004)
Active and inactive are the calls of the source.

How the values were obtained:
[1] = tested on: Escherichia coli; test: microbe, parasite or virus in culture
[2] = tested on: Escherichia coli; test: microbe, parasite or virus in culture; remark: listed apart in the source
[3] = biological target: T1, Cysteine protease ATG4B (Homo sapiens, UniProt Q9Y4P1); format: functional;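 note: Fluorescence-based dose-response confirmation assay measuring inhibition of ATG4B activity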
T1 sequence (Q9Y4P1 whole entry): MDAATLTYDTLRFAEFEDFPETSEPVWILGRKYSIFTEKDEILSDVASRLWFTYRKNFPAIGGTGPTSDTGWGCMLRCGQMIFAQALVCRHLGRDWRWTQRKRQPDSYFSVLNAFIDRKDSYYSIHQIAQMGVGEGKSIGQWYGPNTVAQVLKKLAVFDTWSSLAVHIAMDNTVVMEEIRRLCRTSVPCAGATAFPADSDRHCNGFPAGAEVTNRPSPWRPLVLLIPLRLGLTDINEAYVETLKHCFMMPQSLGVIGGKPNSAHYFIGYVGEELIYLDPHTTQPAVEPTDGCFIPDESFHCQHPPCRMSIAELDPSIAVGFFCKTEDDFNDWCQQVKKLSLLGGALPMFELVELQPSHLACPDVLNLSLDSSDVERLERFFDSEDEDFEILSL

[4] = biological target: Phospholipase A2 (Homo sapiens, UniProt P04054); format: functional;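 note: confirmatory dose-response counterscreen on phospholipase A2, testing hits that came from an ultra-high-throughput screen for ATG4B inhibitors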
[5] = tested on: INS1; test: INS-1E survival protection against cytokine death – cell-based, luminescence, retest, dose response (AID 449756); format: functional; conditions: Rattus norvegicus;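 note: cell death triggered by IL-1 beta plus TNF-alpha plus IFN-gamma mixture; protective hits raise ATP signal compared with cytokine alone wells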
[6] = biological target: Voltage-gated inwardly rectifying potassium channel KCNH2 (Homo sapiens, UniProt Q12809); conditions: Potency;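 note: confirmatory quantitative high-throughput screen measuring inhibition of hERG channel activity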
[7] = biological target: T2, Insulin-degrading enzyme (Homo sapiens, UniProt P14735); test: recombinant IDE activation, cell-free – biochemical, fluorescence polarization, counter-screen for IDE activator project, dose response (AID 588681)
T2 sequence (P14735 whole entry): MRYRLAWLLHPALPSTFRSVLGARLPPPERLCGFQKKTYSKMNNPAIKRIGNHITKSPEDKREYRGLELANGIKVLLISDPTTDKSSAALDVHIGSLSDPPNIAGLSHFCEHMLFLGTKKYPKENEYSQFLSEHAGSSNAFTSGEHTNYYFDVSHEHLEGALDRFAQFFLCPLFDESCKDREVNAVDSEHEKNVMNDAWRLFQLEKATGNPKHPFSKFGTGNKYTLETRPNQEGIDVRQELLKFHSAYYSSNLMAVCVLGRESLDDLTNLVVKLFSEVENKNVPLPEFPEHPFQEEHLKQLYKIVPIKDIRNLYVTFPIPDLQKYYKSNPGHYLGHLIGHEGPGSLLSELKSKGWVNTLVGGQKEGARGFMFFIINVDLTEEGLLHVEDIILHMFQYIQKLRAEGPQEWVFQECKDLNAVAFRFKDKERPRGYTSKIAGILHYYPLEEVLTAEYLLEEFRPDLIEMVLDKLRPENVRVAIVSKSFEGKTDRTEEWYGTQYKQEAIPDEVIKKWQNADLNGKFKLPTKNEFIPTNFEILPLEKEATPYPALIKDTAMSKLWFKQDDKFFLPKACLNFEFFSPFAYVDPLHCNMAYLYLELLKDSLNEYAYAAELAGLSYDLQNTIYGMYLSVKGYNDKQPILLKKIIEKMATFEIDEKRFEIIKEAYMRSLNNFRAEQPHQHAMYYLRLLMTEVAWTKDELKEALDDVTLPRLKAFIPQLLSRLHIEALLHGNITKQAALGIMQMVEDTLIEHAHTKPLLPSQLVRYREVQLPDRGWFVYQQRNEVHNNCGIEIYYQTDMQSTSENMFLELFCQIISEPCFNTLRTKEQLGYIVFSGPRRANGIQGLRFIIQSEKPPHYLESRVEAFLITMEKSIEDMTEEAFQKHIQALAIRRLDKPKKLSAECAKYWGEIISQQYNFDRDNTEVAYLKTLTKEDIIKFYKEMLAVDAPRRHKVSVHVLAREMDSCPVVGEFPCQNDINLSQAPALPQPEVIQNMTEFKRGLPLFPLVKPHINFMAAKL

[8] = biological target: T2, Insulin-degrading enzyme; test: cellular IDE activation of Abeta substrate cleavage – fluorescence polarization, HEK cells, dose response (AID 588439); format: functional, cell-based
[9] = tested on: HEK293; test: membrane integrity loss in HEK cells – cell-based, fluorescence, cytotoxicity control for IDE activator project, dose response (AID 588440); format: functional; conditions: Homo sapiens;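 note: cytotoxicity by LDH release measuring loss of membrane integrity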
[10] = tested on: HEK293; test: optical interference in Abeta FP readout, dose response, artefact control for IDE activator project, biochemical, fluorescence polarization (AID 588442); format: functional, cell-based; conditions: Homo sapiens
[11] = biological target: Beta-galactosidase (Escherichia coli, UniProt Q8VNN2); test: PubChem AID 485352; format: functional
[12] = biological target: Type-1 angiotensin II receptor (Homo sapiens, UniProt P30556); test: antagonism of angiotensin II type 1 receptor – cell-based, uHTS hits, selectivity assay for APJ receptor antagonist project, dose response (AID 463214); format: functional;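 note: antagonist potency against angiotensin II stimulated AT1 response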
[13] = NIH-3T3 fibroblast cytotoxicity, dose response, cytotoxicity control, cell-based, fluorescence, Alamar Blue, secondary assay (AID 2327); format: functional;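 note: NIH-3T3 mouse fibroblasts cultured with fluconazole at 8 µg/mL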
[14] = fluconazole-exposed Candida albicans growth modulators – fluorescence, retest, confirmation (AID 2467); format: functional, cell-based
[15] = biological target: Serine/threonine-protein phosphatase (Candida dubliniensis (strain CD36 / CBS 7987 / NCPF 3949 / NRRLY-17841) (Yeast), UniProt B9W6M3); test: blockers of CaCl2-induced CDRE-lacZ signaling – S. cerevisiae, luminescence, secondary, dose response (AID 2388); format: functional, cell-based;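 note: yeast reporter cells carrying a calcineurin-responsive lacZ construct stimulated with calcium chloride; luminescent beta-galactosidase reporter signal in whole cells rather than isolated phosphatase activity; potency for inhibition where a drop in reporter signal means calcineurin blockade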
[16] = biological target: Heat shock protein HSP 90-alpha (Homo sapiens, UniProt P07900); format: functional, organism-based
[17] = biological target: ATP-dependent molecular chaperone HSP82 (Candida albicans (strain WO-1) (Yeast), UniProt C4YTQ8); test: steroid-induced GRE reporter decrease in yeast – S. cerevisiae, luminescence, Hsp90 inhibitor project, dose response (AID 2400); format: functional, cell-based;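 note: beta-galactosidase luminescence from glucocorticoid response element reporter as proxy for Hsp90 function; inhibitor potency where signal loss means Hsp90 inhibition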
[18] = Luminescence Cell-Based Dose Response HTS to Identify Activators of Luciferase Translation or Activity in H4 […] Cells. [Related pubchem assays: 1829 (Project Summary), 1814 (Primary HTS)]; format: functional
[19] = tested on: H4; test: Luminescence Cell-Based Dose Response HTS to Identify Activators of 5'UTR Stem-Loop Driven Prion Protein mRNA Translation in H4 Neuroglioblastoma Cells. [Related pubchem assays: 1829 (Project Summary), 1814 (Primary HTS)]; format: functional; conditions: Homo sapiens
[20] = biological target: Beta-2 adrenergic receptor (Homo sapiens, UniProt P07550); test: ADRB2 activation measured by internalization – cell-based, FAP fluorogen, flow cytometry, cherry pick 1, dose response (AID 588763); format: functional
[21] = biological target: T3, Short transient receptor potential channel 4 (Mus musculus, UniProt Q9QUQ5); test: calcium entry via TRPC4 opening agents – cell-based, HEK293 TRPC4/mu-opioid, Fluo-4 calcium, dose response (AID 434937); format: functional
T3 sequence (Q9QUQ5 whole entry): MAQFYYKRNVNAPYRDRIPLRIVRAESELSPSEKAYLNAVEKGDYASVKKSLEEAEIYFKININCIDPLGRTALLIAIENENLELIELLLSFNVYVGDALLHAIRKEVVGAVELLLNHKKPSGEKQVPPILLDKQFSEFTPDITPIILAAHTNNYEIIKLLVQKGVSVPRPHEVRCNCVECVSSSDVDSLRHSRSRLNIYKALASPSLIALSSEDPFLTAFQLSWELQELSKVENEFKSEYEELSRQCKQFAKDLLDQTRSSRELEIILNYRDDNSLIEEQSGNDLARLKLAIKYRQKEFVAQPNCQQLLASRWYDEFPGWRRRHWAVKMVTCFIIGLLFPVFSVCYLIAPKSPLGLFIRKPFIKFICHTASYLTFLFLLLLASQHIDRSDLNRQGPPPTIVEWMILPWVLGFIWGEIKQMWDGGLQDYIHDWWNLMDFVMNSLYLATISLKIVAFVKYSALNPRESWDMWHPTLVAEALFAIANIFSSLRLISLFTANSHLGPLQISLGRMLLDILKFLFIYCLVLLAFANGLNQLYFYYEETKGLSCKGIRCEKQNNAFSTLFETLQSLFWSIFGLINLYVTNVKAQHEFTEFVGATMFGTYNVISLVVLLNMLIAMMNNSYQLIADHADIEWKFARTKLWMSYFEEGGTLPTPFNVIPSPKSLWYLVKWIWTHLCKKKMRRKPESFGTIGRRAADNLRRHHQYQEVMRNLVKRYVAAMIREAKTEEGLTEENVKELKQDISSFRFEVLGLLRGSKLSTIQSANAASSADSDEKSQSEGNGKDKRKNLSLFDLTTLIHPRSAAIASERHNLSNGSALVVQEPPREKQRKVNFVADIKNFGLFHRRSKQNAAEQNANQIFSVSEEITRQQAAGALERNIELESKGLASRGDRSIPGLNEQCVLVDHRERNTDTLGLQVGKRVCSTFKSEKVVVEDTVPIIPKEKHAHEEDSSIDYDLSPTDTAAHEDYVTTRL

[22] = biological target: Delta-type opioid receptor (Homo sapiens, UniProt P41143); test: Counterscreen for agonists of heterodimerization of the mu 1 (OPRM1) and delta 1 (OPRD1) opioid receptors: Luminescence-based cell-based high throughput dose response assay to identify agonists of OPRD1 homodimerization. [Related pubchem assays (depositor defined):AID504326, AID504355, AID504692, AID504904, AID504905]; format: functional
[23] = biological target: Mu-type opioid receptor (Homo sapiens, UniProt P35372); test: Counterscreen for agonists of heterodimerization of the mu 1 (OPRM1) and delta 1 (OPRD1) opioid receptors: Luminescence-based cell-based high throughput dose response assay to identify agonists of OPRM1 homodimerization.; format: functional;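 note: U2OS cells expressing OPRM1 and beta-arrestin as split beta-galactosidase partners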
[24] = biological target: 5-hydroxytryptamine receptor 5A (Homo sapiens, UniProt P47898); test: Counterscreen for agonists of OPRM1-OPRD1 heterodimerization: luminescence-based cell-based high throughput dose response assay to identify agonists of 5-hydroxytryptamine (serotonin) 5A receptor (HTR5A). [Related pubchem assays (depositor defined):AID504326, AID504355, AID504692, AID504904, AID504905]; format: functional
[25] = biological target: Dual specificity tyrosine-phosphorylation-regulated kinase 1A (Rattus norvegicus, UniProt Q63470); format: biochemical, Homo sapiens
[26] = biological target: T4, Probable nicotinate-nucleotide adenylyltransferase (Staphylococcus aureus (strain N315), UniProt P65502); format: functional, Staphylococcus aureus subsp. aureus N315;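 for IC50 Mean: confirmatory dose-response retesting of NadD inhibitor hits first found in an ultra-high-throughput screen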
[27] = biological target: T4, Probable nicotinate-nucleotide adenylyltransferase; format: functional, Staphylococcus aureus subsp. aureus N315; conditions: read-out: IC50_Mean
[28] = tested on: CHO; test: CHO cell viability loss, potency – luminescence, cytotoxicity control for TLR9-MyD88 binding inhibitor project, dose response (AID 588339); format: functional, cell-based, hamster; conditions: Cricetulus griseus;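 note: CHO cells stably coexpressing TLR9 and MyD88 fusions from primary screen; compound exposure lasted 48 hours before viability readout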
[29] = biological target: Beta Lactamase (Pseudomonas aeruginosa, UniProt Q932Y6); test: BLA reporter interference, concentration series – BLA reporter cells, FRET fluorescence, artefact control for TLR9-MyD88 binding inhibitor project, dose response (AID 588341); format: cell-based;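 note: cell based assay in CHO-K1 cells stably expressing beta-lactamase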

Sequence of Beta-2 adrenergic receptor (P07550 whole entry): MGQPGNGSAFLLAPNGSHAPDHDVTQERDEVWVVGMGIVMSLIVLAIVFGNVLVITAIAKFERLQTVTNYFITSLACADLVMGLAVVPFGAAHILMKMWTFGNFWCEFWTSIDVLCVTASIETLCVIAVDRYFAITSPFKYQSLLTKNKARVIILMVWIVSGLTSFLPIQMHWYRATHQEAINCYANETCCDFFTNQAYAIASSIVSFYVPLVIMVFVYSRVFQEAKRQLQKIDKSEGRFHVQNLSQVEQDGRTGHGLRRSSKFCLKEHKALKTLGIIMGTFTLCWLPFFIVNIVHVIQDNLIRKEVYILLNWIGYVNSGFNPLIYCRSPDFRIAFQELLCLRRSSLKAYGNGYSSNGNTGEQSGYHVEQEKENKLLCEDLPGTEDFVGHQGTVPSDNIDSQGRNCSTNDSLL
T4 sequence (P65502 whole entry): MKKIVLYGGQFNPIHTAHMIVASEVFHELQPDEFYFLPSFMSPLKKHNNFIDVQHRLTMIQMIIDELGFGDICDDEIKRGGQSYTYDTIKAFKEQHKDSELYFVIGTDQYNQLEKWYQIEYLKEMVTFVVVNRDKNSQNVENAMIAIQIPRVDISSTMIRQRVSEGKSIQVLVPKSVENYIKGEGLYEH
Sequence of Voltage-gated inwardly rectifying potassium channel KCNH2 (Q12809 whole entry): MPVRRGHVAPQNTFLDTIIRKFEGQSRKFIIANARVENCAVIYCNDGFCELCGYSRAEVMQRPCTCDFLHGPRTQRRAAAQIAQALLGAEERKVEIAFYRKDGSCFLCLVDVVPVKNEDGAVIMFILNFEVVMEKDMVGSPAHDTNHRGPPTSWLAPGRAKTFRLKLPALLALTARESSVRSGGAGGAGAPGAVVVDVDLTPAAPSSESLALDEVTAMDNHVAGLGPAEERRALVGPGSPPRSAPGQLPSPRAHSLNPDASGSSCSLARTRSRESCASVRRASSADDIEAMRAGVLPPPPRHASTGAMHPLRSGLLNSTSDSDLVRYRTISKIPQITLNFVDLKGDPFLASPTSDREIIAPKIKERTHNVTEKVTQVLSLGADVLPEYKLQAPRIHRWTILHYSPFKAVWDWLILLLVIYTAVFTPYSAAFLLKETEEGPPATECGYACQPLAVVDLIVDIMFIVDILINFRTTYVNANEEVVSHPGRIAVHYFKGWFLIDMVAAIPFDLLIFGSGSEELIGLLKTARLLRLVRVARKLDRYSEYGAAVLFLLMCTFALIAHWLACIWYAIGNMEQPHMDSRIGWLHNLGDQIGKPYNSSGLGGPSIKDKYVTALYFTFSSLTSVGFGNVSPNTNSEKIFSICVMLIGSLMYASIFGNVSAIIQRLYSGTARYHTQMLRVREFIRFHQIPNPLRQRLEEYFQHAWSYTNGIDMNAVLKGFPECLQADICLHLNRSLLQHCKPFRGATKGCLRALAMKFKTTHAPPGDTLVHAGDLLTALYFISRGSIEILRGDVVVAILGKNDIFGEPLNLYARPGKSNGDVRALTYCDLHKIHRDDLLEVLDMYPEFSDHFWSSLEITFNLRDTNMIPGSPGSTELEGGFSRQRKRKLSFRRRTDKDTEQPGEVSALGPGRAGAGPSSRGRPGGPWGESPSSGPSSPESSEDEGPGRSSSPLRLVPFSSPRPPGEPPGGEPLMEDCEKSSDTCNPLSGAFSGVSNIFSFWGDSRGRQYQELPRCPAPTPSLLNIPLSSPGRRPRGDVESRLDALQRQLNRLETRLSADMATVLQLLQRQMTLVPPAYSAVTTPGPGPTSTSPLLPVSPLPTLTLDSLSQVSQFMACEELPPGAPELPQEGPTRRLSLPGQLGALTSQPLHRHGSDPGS
Sequence of ATP-dependent molecular chaperone HSP82 (C4YTQ8 whole entry): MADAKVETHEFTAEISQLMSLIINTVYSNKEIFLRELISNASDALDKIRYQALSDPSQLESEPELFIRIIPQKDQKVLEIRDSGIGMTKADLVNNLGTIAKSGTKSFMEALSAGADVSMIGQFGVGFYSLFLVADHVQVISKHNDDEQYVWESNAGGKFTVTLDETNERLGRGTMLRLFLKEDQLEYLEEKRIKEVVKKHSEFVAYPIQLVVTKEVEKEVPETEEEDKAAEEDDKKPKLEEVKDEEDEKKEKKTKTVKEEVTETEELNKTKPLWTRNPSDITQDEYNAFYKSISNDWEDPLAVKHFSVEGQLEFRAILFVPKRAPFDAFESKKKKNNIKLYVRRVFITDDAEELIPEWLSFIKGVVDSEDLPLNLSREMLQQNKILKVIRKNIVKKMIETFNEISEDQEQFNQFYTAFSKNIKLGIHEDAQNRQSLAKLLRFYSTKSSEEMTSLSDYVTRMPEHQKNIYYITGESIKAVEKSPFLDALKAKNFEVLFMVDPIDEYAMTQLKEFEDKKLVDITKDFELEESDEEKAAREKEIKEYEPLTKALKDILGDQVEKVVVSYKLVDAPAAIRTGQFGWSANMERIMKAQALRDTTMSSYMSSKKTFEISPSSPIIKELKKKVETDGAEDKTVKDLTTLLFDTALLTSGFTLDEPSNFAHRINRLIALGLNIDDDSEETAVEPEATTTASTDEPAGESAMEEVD
Sequence of Serine/threonine-protein phosphatase (B9W6M3 whole entry): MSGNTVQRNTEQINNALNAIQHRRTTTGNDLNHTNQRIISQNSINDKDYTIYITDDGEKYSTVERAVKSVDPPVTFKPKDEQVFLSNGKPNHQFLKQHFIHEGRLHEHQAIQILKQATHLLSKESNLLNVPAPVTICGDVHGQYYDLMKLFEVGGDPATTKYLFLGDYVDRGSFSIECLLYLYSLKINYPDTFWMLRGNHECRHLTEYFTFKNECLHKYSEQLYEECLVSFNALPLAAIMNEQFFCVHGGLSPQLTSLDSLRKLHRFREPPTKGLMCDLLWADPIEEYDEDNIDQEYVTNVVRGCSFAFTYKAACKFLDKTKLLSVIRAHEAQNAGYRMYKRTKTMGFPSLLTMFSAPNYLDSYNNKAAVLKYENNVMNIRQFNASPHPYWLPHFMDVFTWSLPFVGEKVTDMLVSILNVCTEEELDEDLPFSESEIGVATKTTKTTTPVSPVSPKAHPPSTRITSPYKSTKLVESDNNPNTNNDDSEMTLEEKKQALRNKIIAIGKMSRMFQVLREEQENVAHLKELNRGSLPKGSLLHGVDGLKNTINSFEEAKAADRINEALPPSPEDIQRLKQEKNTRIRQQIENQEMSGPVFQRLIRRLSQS
Sequence of Phospholipase A2 (P04054 whole entry): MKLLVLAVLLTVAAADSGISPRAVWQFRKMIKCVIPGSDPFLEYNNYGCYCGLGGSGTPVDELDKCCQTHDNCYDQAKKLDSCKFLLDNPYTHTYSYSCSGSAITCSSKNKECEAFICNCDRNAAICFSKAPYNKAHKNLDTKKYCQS
Sequence of Delta-type opioid receptor (P41143 whole entry): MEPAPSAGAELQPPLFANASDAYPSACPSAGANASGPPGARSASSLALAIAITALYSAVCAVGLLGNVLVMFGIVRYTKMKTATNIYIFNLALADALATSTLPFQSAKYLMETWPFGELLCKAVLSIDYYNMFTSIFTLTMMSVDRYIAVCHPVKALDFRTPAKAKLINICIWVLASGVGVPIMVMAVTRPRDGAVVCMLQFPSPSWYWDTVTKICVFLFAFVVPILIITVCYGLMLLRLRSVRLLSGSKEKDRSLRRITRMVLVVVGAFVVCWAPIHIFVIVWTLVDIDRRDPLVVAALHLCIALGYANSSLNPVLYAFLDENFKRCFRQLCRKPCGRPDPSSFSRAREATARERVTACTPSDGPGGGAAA
Sequence of Type-1 angiotensin II receptor (P30556 whole entry): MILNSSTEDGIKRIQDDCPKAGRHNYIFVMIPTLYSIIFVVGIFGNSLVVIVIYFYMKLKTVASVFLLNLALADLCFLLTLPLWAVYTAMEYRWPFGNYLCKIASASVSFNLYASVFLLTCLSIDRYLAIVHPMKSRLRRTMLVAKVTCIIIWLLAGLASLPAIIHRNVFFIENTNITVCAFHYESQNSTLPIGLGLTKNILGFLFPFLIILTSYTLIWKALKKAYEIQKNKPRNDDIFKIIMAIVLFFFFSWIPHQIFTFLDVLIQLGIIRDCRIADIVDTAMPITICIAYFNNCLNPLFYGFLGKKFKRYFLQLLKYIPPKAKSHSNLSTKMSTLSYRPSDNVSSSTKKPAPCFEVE
Sequence of 5-hydroxytryptamine receptor 5A (P47898 whole entry): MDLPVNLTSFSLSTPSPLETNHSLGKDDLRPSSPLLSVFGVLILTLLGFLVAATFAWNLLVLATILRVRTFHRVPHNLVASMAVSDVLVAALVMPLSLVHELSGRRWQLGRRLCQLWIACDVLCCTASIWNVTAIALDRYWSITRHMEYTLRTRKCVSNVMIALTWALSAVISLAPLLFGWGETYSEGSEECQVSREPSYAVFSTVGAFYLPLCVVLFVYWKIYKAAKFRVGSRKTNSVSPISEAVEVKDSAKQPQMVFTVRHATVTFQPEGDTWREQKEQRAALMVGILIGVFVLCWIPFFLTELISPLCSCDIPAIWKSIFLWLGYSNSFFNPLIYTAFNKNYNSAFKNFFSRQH
Sequence of Mu-type opioid receptor (P35372 whole entry): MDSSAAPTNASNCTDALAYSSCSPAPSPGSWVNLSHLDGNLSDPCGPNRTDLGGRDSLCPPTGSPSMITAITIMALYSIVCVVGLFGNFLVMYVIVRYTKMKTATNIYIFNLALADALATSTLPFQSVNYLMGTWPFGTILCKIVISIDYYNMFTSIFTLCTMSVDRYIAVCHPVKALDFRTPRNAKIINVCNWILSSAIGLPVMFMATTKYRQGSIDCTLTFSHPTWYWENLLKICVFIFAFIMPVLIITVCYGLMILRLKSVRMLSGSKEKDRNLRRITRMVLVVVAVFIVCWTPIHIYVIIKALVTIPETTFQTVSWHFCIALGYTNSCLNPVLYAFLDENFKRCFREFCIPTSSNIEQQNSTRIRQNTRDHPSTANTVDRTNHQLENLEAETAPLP

Structure (SMILES): CCCCN(C)CCn1c(=S)[nH]c2ncccc2c1=O
- AC50 [1]: 29.7 µM (active)

Structure (SMILES): Cc1ccc(Cn2nc(C)c(NC(=O)c3cc(C)no3)c2C)cc1
- AC50 [2]: > 380 µM (inactive)

Structure (SMILES): CC1(C)C2CCC1(C)C1(C2)NC(=O)c2ccccc2O1 (configuration not stated)
- IC50 [3]: 14.8 µM (active)
- IC50 [4]: 11 µM (active)

Structure (SMILES): C=CCc1c(C)nc(C)nc1N/N=C/c1ccc(N(C)C)cc1
- AC50 [5]: 2.54 µM (active)
- AC50 [1]: 26.4 µM (active)

Structure (SMILES): NC1(C(=O)O)CC1
- AC50 [6]: 31.6 µM (inconclusive)

Structure (SMILES): CCC1CCCCN1S(=O)(=O)c1ccc(S(=O)(=O)N2CCN(S(=O)(=O)CC)CC2)cc1 (configuration not stated)
- EC50 [7]: > 54.7 µM (inactive)
- EC50 [8]: > 54.7 µM (inactive)
- IC50 [9]: > 9.91 µM (active)
- EC50 [10]: > 55.9 µM (inactive)

Structure (SMILES): O=C(CNS(=O)(=O)c1ccccc1)OCC(=O)c1cccc([N+](=O)[O-])c1
- EC50 [11]: > 40 µM (inactive)
- IC50 [12]: 38.1 µM (not active)

Structure (SMILES): C=CCc1c(C)c(C#N)c2nc3ccccc3n2c1NCCN(C)C
- EC50 [13]: > 160 µM (inactive)
- EC50 [14]: 1.27 µM (active)
- EC50 [15]: > 180 µM (inactive)
- AC50 [16]: 4.45 µM (active)
- EC50 [17]: > 150 µM (inactive)

Structure (SMILES): O=C(C[C@H]1C[C@H](C(=O)N2CCOCC2)[C@@]2(CCC3CCCC3)c3[nH]c4cc(-c5ccco5)ccc4c3CCN2C1=O)NCCCn1ccnc1
- AC50 [2]: 59.9 µM (active)

Structure (SMILES): COc1ccc(S(=O)(=O)N2CCCC(C(=O)Nc3ccc(NC(=O)c4ccccn4)cc3)C2)cc1 (configuration not stated)
- EC50 [18]: > 120 µM (not active)
- EC50 [19]: 5.33 µM (active)
- EC50 [20]: 0.0809 µM (active)

Structure (SMILES): CCOC(=O)c1ccc(NC(=O)Cc2coc3cc4c(cc23)CCC4)cc1
- EC50 [20]: 7.53 µM (active)

Structure (SMILES): Cc1ccc(-n2cc(CNC(C)c3cnn(C)c3)c(-c3ccc(F)cc3)n2)cc1 (configuration not stated)
- EC50 [21]: 1.88 µM (active)
- EC50 [22]: 37.3 µM (inactive)
- EC50 [23]: 2.42 µM (active)
- EC50 [24]: > 92.5 µM (inactive)

Structure (SMILES): NC1=NC(=O)/C(=C\c2ccc(-c3ccc(Cl)cc3)o2)S1
- AC50 [25]: 0.195 µM (active)

Structure (SMILES): CCOC(=O)C1=C(C)NC(C)=C(C(=O)OC)C1c1cccc(Cl)c1Cl (configuration not stated) [FELODIPINE]
- AC50 [6]: 20 µM (inconclusive)

Structure (SMILES): CCN(Cc1ccccc1)S(=O)(=O)c1ccc(C(=O)Nc2nnc(-c3ccccc3OC)o2)cc1
- EC50 [13]: 39.3 µM (active)
- EC50 [14]: 0.468 µM (active)
- EC50 [15]: > 180 µM (inactive)
- EC50 [17]: 19.9 µM (active)
- IC50 [26]: 8.19 µM (active)
- IC50 [27]: 56.5 µM (active)

Structure (SMILES): O=[N+]([O-])c1ccc(-c2ccc(/C=N/Nc3nc(NCc4ccccc4)nc(N4CCOCC4)n3)o2)cc1
- IC50 [28]: 15.9 µM (inactive)
- IC50 [29]: 4.69 µM (active)
